Test results as given in patent publication US20220073941A1, “HERBICIDE-RESISTANT CAMELINA SATIVA PLANTS, AND VARIANT CAMELINA ACETOHYDROXYACID SYNTHASE POLYPEPTIDES” (priority 2019, published 2022).
Several values for one entry are separate records, joined by “and”; a condition that tells them apart may be missing. Equal entries are not always repeated.

What was measured:
Assay in all cases: AHAS product feedback inhibition assay (leucine, isoleucine, valine)
Assay type in all cases: biochemical, Camelina sativa
[1] = tested on: AHAS, enzyme extract of MIDAS™; details: for % activity (AHAS activity as % of control): control 100 mM pyruvate, no added amino acid, per experiment (Exp. 1-3); for % activity (AHAS activity as % of control), means: means of 3 experiments; for Absorbance at 530 nm (AHAS product feedback inhibition assay, raw data), Avg: average of replicates per experiment; for Absorbance at 530 nm (AHAS product feedback inhibition assay, raw data): individual replicates, experiments 1-3
Description: (§1) Briefly, for each of the three comparators, leaf and stem (petiole) material was bulk-harvested at the 3-4 leaf stage from at least 30 plantlets, snap-frozen in liquid nitrogen, and stored at −80° C. The AHAS in vitro assay was conducted according to the method of Singh et al (1988), with modifications by Yu (2010) and Rustgi (2014). For each comparator, 4 grams of frozen material were ground to a fine powder with a mortar and pestle in liquid nitrogen and homogenized in 1 volume of cold extraction buffer containing 100 mM potassium phosphate buffer (pH7.5), 10 mM sodium pyruvate, 5 mM MgCl2, 100 μM flavin adenine dinucleotide (FAD), and 10% glycerol. Four 2-mL microcentrifuge tubes were used for each comparator. The homogenate was centrifuged at 13,000 rpm for 10 min at 4° C., supernatant collected and re-centrifuged for an additional 10 minutes under the same conditions. For each tube, 1 mL of supernatant was pipetted into a new 2-mL microcentrifuge tube, and protein was precipitated by the addition of 1 mL of saturated ammonium sulfate. The solution was mixed well by vortex and allowed to stand on ice for 20 minutes, then centrifuged at 13,000 rpm at 4° C. The protein pellet was resuspended in 300 μL of reaction buffer containing 50 mM potassium phosphate buffer (pH7.5), 100 mM sodium pyruvate, 10 mM MgCl2, 1 mM EDTA, 10 μM FAD, 100 mM NaCl, and 1 mM thiamine pyrophosphate. Tubes of each comparator were combined, mixed well, kept on ice and immediately used in the AHAS activity and feedback inhibition assays.
(§2) Total protein concentration of the crude extract was determined by the Bradford method (Bradford, 1976). All assays were conducted using 300 μg of total protein each.
(§3) The feedback inhibition assay was performed by combining equal amounts of extract and amino acids leucine, isoleucine, or valine, respectively, in concentrations of 0.1 mM, 1 mM, 10 mM and 100 mM, according to Yu et al. (2010). The reaction mixture contained 50 μL enzyme extract and 50 μL 100 mM sodium pyruvate and inhibitor amino acid. The reaction was incubated at 37° C. for 60 minutes, then stopped and acetolactate converted to acetoin with the addition of 20 μL of 6 N H2SO4 and incubated at 60° C. for 15 minutes. A separate background “blank” was included for each sample group by adding 20 μL of 6 N H2SO4 prior to the addition of the enzyme extracts. Then, 95 μL of 0.55% w/v creatine solution and 95 μL of α-naphthol solution (5.5% w/v in 5 N NaOH) were added and the mixture incubated at 60° C. for a further 15 minutes. After cooling to room temperature for 15 minutes, enzyme activity was determined colorimetrically by reading the absorbance at 530 nm. Three independent experiments were conducted. Experiment 1 and 2 each contained 2 technical replicates, while experiment 3 included 3 technical replicates.

[2] = tested on: AHAS, enzyme extract of 14CS0851-01-14; details: for % activity (AHAS activity as % of control): control 100 mM pyruvate, no added amino acid, per experiment (Exp. 1-3); for % activity (AHAS activity as % of control), means: means of 3 experiments; for Absorbance at 530 nm (AHAS product feedback inhibition assay, raw data), Avg: average of replicates per experiment; for Absorbance at 530 nm (AHAS product feedback inhibition assay, raw data): individual replicates, experiments 1-3; for sensitivity of AHAS to feedback inhibition, comparison of enzyme extracts: extracts of 14CS0851-01-14, SRS 934 and MIDAS™ compared, 1 mM, 10 mM, 100 mM
Description: as §1, §2, §3

[3] = tested on: AHAS, enzyme extract of SRS 934; details: for % activity (AHAS activity as % of control): control 100 mM pyruvate, no added amino acid, per experiment (Exp. 1-3); for % activity (AHAS activity as % of control), means: means of 3 experiments; for Absorbance at 530 nm (AHAS product feedback inhibition assay, raw data), Avg: average of replicates per experiment; for Absorbance at 530 nm (AHAS product feedback inhibition assay, raw data): individual replicates, experiments 1-3
Description: as §1, §2, §3

[4] = 1 mM amino acid final concentration
[5] = 10 mM amino acid final concentration
[6] = 100 mM amino acid final concentration

Row | Compound | % activity (AHAS activity as % of control) ([1]; 1 mM final concentration) | % activity (AHAS activity as % of control), means ([1]; 1 mM final concentration) | % activity (AHAS activity as % of control) ([1]; 10 mM final concentration) | % activity (AHAS activity as % of control), means ([1]; 10 mM final concentration) | % activity (AHAS activity as % of control) ([1]; 100 mM final concentration) | % activity (AHAS activity as % of control), means ([1]; 100 mM final concentration) | % activity (AHAS activity as % of control) ([2]; 1 mM final concentration) | % activity (AHAS activity as % of control), means ([2]; 1 mM final concentration) | % activity (AHAS activity as % of control) ([2]; 10 mM final concentration) | % activity (AHAS activity as % of control), means ([2]; 10 mM final concentration) | % activity (AHAS activity as % of control) ([2]; 100 mM final concentration) | % activity (AHAS activity as % of control), means ([2]; 100 mM final concentration) | % activity (AHAS activity as % of control) ([3]; 1 mM final concentration) | % activity (AHAS activity as % of control), means ([3]; 1 mM final concentration) | % activity (AHAS activity as % of control) ([3]; 10 mM final concentration) | % activity (AHAS activity as % of control), means ([3]; 10 mM final concentration) | % activity (AHAS activity as % of control) ([3]; 100 mM final concentration) | % activity (AHAS activity as % of control), means ([3]; 100 mM final concentration) | Absorbance at 530 nm (AHAS product feedback inhibition assay, raw data), Avg [1, 4] | Absorbance at 530 nm (AHAS product feedback inhibition assay, raw data) [1, 4] | further results
1 | CC(C)C[C@H](N)C(=O)O [Leu] | 50.4% and 63.2% and 45.2% | 52.9% | 39.8% and 58.2% and 39.6% | 45.9% | 33.2% and 53.3% and 38.1% | 41.6% | 48.8% and 63.7% and 57.9% | 56.8% | 41.6% and 58.1% and 39.5% | 46.4% | 34.2% and 52.1% | 40.2% | 51.5% and 83.5% and 45.2% | 60.1% | 45.1% and 70.4% and 43.0% | 52.8% | 37.2% and 59.1% and 40.6% | 45.7% | – | – | –
2 | CC(C)[C@H](N)C(=O)O [Val] | 55.6% and 49.8% and 71.2% | 58.9% | 48.0% and 47.5% and 67.0% | 54.2% | 40.7% and 37.8% and 58.2% | 45.6% | 51.0% and 49.1% and 88.5% | 62.8% | 46.9% and 45.0% and 76.1% | 56.0% | 35.5% and 34.8% and 66.2% | 45.5% | 58.3% and 47.9% and 78.7% | 61.7% | 46.5% and 47.0% and 77.8% | 57.1% | 41.0% and 35.4% and 61.7% | 46.1% | – | – | –
3 | CC[C@H](C)[C@H](N)C(=O)O [isoleucine] | – | – | – | – | – | – | – | – | – | – | – | – | – | – | – | – | – | – | 0.327 and 0.238 and 0.141 | 0.306 and 0.348 and 0.271 and 0.204 and 0.136 and 0.138 and 0.149 | Absorbance at 530 nm (AHAS product feedback inhibition assay, raw data), Avg [1, 5]: 0.2675 and 0.192; Absorbance at 530 nm (AHAS product feedback inhibition assay, raw data) [1, 5]: 0.275 and 0.208 and 0.176 and 0.100 and 0.107 and 0.102; Absorbance at 530 nm (AHAS product feedback inhibition assay, raw data), Avg [1, 6]: 0.195 and 0.077; Absorbance at 530 nm (AHAS product feedback inhibition assay, raw data) [1, 6]: 0.194 and 0.176 and 0.149 and 0.080 and 0.075 and 0.078; Absorbance at 530 nm (AHAS product feedback inhibition assay, raw data), Avg [2, 4]: 0.296 and 0.229 and 0.105; Absorbance at 530 nm (AHAS product feedback inhibition assay, raw data) [2, 4]: 0.305 and 0.287 and 0.238 and 0.220 and 0.106 and 0.104; Absorbance at 530 nm (AHAS product feedback inhibition assay, raw data), Avg [2, 5]: 0.209 and 0.186 and 0.088; Absorbance at 530 nm (AHAS product feedback inhibition assay, raw data) [2, 5]: 0.217 and 0.201 and 0.200 and 0.171 and 0.087 and 0.082 and 0.094; Absorbance at 530 nm (AHAS product feedback inhibition assay, raw data), Avg [2, 6]: 0.182 and 0.145 and 0.061; Absorbance at 530 nm (AHAS product feedback inhibition assay, raw data) [2, 6]: 0.188 and 0.176 and 0.70 and 0.120 and 0.061 and 0.072 and 0.052; sensitivity of AHAS to feedback inhibition, comparison of enzyme extracts [2]: no significant difference; Absorbance at 530 nm (AHAS product feedback inhibition assay, raw data), Avg [3, 4]: 0.2535 and 0.224 and 0.115; Absorbance at 530 nm (AHAS product feedback inhibition assay, raw data) [3, 4]: 0.251 and 0.256 and 0.245 and 0.203 and 0.120 and 0.111 and 0.114; Absorbance at 530 nm (AHAS product feedback inhibition assay, raw data), Avg [3, 5]: 0.234 and 0.187 and 0.093; Absorbance at 530 nm (AHAS product feedback inhibition assay, raw data) [3, 5]: 0.233 and 0.235 and 0.219 and 0.154 and 0.091 and 0.089 and 0.100; Absorbance at 530 nm (AHAS product feedback inhibition assay, raw data), Avg [3, 6]: 0.186 and 0.156 and 0.069; Absorbance at 530 nm (AHAS product feedback inhibition assay, raw data) [3, 6]: 0.196 and 0.176 and 0.177 and 0.134 and 0.065 and 0.069 and 0.073
4 | CC(C)C[C@H](N)C(=O)O [leucine] | – | – | – | – | – | – | – | – | – | – | – | – | – | – | – | – | – | – | 0.2245 and 0.180 and 0.106 | 0.215 and 0.234 and 0.198 and 0.162 and 0.102 and 0.105 and 0.112 | Absorbance at 530 nm (AHAS product feedback inhibition assay, raw data), Avg [1, 5]: 0.1775 and 0.166 and 0.093; Absorbance at 530 nm (AHAS product feedback inhibition assay, raw data) [1, 5]: 0.178 and 0.177 and 0.181 and 0.150 and 0.096 (2×) and 0.088; Absorbance at 530 nm (AHAS product feedback inhibition assay, raw data), Avg [1, 6]: 0.148 and 0.152 and 0.090; Absorbance at 530 nm (AHAS product feedback inhibition assay, raw data) [1, 6]: 0.142 and 0.154 and 0.153 and 0.150 and 0.078 and 0.096 (2×); Absorbance at 530 nm (AHAS product feedback inhibition assay, raw data), Avg [2, 4]: 0.204 and 0.149 and 0.094; Absorbance at 530 nm (AHAS product feedback inhibition assay, raw data) [2, 4]: 0.214 and 0.194 and 0.162 and 0.136 and 0.079 and 0.099 and 0.105; Absorbance at 530 nm (AHAS product feedback inhibition assay, raw data), Avg [2, 5]: 0.174 and 0.136 and 0.064; Absorbance at 530 nm (AHAS product feedback inhibition assay, raw data) [2, 5]: 0.183 and 0.165 and 0.151 and 0.120 and 0.066 and 0.061 and 0.067; Absorbance at 530 nm (AHAS product feedback inhibition assay, raw data), Avg [2, 6]: 0.122 and 0.056; Absorbance at 530 nm (AHAS product feedback inhibition assay, raw data) [2, 6]: 0.146 and 0.14 and 0.138 and 0.105 and 0.051 and 0.060 and 0.057; sensitivity of AHAS to feedback inhibition, comparison of enzyme extracts [2]: no significant difference; Absorbance at 530 nm (AHAS product feedback inhibition assay, raw data), Avg [3, 4]: 0.204 and 0.192 and 0.089; Absorbance at 530 nm (AHAS product feedback inhibition assay, raw data) [3, 4]: 0.2 and 0.208 and 0.225 and 0.158 and 0.097 and 0.085 and 0.086; Absorbance at 530 nm (AHAS product feedback inhibition assay, raw data), Avg [3, 5]: 0.1785 and 0.162 and 0.085; Absorbance at 530 nm (AHAS product feedback inhibition assay, raw data) [3, 5]: 0.17 and 0.187 and 0.163 and 0.140 and 0.092 and 0.091 and 0.071; Absorbance at 530 nm (AHAS product feedback inhibition assay, raw data), Avg [3, 6]: 0.1475 and 0.136 and 0.080; Absorbance at 530 nm (AHAS product feedback inhibition assay, raw data) [3, 6]: 0.154 and 0.141 and 0.167 and 0.104 and 0.084 and 0.068 and 0.089
